Data: the supplement of paper PMC10307832

Legend:
Assay in all cases: relative viability (nuclei count vs DMSO), 5 days (fraction); higher = more cells survive
CAL-12T = settings: first compound 0.5 µM
How it was run: (§1)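 Lung cancer cell lines in 1536-well plates got either a single drug or a fixed anchor-drug dose together with five library-drug doses (not always all listed) in √10 steps, by pin tool, on the day after seeding. Nuclei were counted after 5 days, and relative viability is the treated-to-vehicle ratio of nuclei counts. Values are medians of duplicate plates.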

NCI-H2228 = tested on: NCI-H2228
How it was run: as §1

BEN = tested on: BEN
How it was run: as §1

NCI-H1793 = tested on: NCI-H1793
How it was run: as §1

NCI-H1437 = tested on: NCI-H1437
How it was run: as §1

NCI-H2405 = tested on: NCI-H2405
How it was run: as §1

NCI-H3122 = tested on: NCI-H3122
How it was run: as §1

201T = tested on: 201T
How it was run: as §1

NCI-H727 = tested on: NCI-H727
How it was run: as §1

RERF-LC-KJ = tested on: RERF-LC-KJ
How it was run: as §1

HOP-62 = tested on: HOP-62
How it was run: as §1

LCLC-97TM1 = tested on: LCLC-97TM1
How it was run: as §1

CC1(C)CCC(c2ccc(Cl)cc2)=C(CN2CCN(c3ccc(C(=O)NS(=O)(=O)c4ccc(N[C@H](CCN5CCOCC5)CSc5ccccc5)c(S(=O)(=O)C(F)(F)F)c4)cc3)CC2)C1 [Navitoclax] + Cc1nc(NC(=O)N2CCC[C@H]2C(N)=O)sc1-c1ccnc(C(C)(C)C(F)(F)F)c1 [Alpelisib] (partner 2 µM)
relative viability (CAL-12T): 1.11
relative viability (NCI-H2228; first compound 0.005 µM): 0.745
relative viability (NCI-H2228; first compound 0.01581 µM): 0.725
relative viability (NCI-H2228; first compound 0.05 µM): 0.602
relative viability (NCI-H2228; first compound 0.1581 µM): 0.688
relative viability (NCI-H2228; first compound 0.5 µM): 0.819
relative viability (BEN; first compound 0.005 µM): 0.983
relative viability (BEN; first compound 0.01581 µM): 1.13
relative viability (BEN; first compound 0.05 µM): 1.02
relative viability (BEN; first compound 0.1581 µM): 1.08
relative viability (BEN; first compound 0.5 µM): 0.831
relative viability (NCI-H1793; first compound 0.005 µM): 0.772
relative viability (NCI-H1793; first compound 0.01581 µM): 0.799
relative viability (NCI-H1793; first compound 0.05 µM): 0.574
relative viability (NCI-H1793; first compound 0.1581 µM): 0.858
relative viability (NCI-H1793; first compound 0.5 µM): 0.609
relative viability (NCI-H1437; first compound 0.005 µM): 0.885
relative viability (NCI-H1437; first compound 0.01581 µM): 1.04
relative viability (NCI-H1437; first compound 0.05 µM): 0.98
relative viability (NCI-H1437; first compound 0.1581 µM): 1.05
relative viability (NCI-H1437; first compound 0.5 µM): 0.871
relative viability (NCI-H2405; first compound 0.005 µM): 0.762
relative viability (NCI-H2405; first compound 0.01581 µM): 0.896
relative viability (NCI-H2405; first compound 0.05 µM): 0.954
relative viability (NCI-H2405; first compound 0.1581 µM): 0.83
relative viability (NCI-H2405; first compound 0.5 µM): 0.834
relative viability (NCI-H3122; first compound 0.005 µM): 0.686
relative viability (NCI-H3122; first compound 0.01581 µM): 0.8
relative viability (NCI-H3122; first compound 0.05 µM): 0.726
relative viability (NCI-H3122; first compound 0.1581 µM): 0.901
relative viability (NCI-H3122; first compound 0.5 µM): 0.766
relative viability (201T; first compound 0.005 µM): 1.03
relative viability (201T; first compound 0.01581 µM): 1.04
relative viability (201T; first compound 0.05 µM): 1.02
relative viability (201T; first compound 0.1581 µM): 1
relative viability (201T; first compound 0.5 µM): 1.03
relative viability (NCI-H727; first compound 0.005 µM): 0.5
relative viability (NCI-H727; first compound 0.01581 µM): 0.619
relative viability (NCI-H727; first compound 0.1581 µM): 0.526
relative viability (NCI-H727; first compound 0.5 µM): 0.434
relative viability (RERF-LC-KJ; first compound 0.005 µM): 0.794
relative viability (RERF-LC-KJ; first compound 0.01581 µM): 0.839
relative viability (RERF-LC-KJ; first compound 0.05 µM): 0.765
relative viability (RERF-LC-KJ; first compound 0.1581 µM): 0.75
relative viability (RERF-LC-KJ; first compound 0.5 µM): 0.793
relative viability (HOP-62; first compound 0.005 µM): 0.781
relative viability (HOP-62; first compound 0.01581 µM): 1.06
relative viability (HOP-62; first compound 0.05 µM): 0.869
relative viability (HOP-62; first compound 0.1581 µM): 0.871
relative viability (HOP-62; first compound 0.5 µM): 0.785
relative viability (LCLC-97TM1; first compound 0.005 µM): 0.335
relative viability (LCLC-97TM1; first compound 0.01581 µM): 0.328
relative viability (LCLC-97TM1; first compound 0.05 µM): 0.241
relative viability (LCLC-97TM1; first compound 0.1581 µM): 0.228
relative viability (LCLC-97TM1; first compound 0.5 µM): 0.243
